# Data: US20030089034A1, “Formulation and method for increasing the essential oil content in aromatic crops” (priority 2001, published 2003)
# Legend:
# Assay type in all cases: in vivo
# Mentha arvensis cv. Kosi [1] = assay: Optimal crop maturity stage for chemical application, essential oil content; conditions: 2 mM spray, LSD (p = 0.05) 0.07
# Method: In this example, three of the chemicals described above were further investigated to determine the optimal crop maturity stage for applying the formulation. The three chemicals used in this example were DL-2 amino butyric acid, isonicotinamide, and salicylic acid, all at concentrations of 2 mM. The solutions were tested on Mentha arvensis cv. Kosi planted in a randomized block design with 5 replications. In these experiments, the crops were sprayed at 4 different stages of growth and development including 10-day-old crops, 50-day-old crops, 80-day-old crops, and 100-day-old crops.
# [2] = tested on: Pelargonium graveolens cv. Bipuli; assay: Field testing of identified compounds, essential oil content; conditions: for Content of Essential Oil (%): 2 mM spray at onset of maturity, 15 days before harvest, water control 0.13, LSD (p = 0.05) 0.01; for change in essential oil content (in words): stated for the field tests of Table 1 (both plants) without naming the plant
# Method: (§1) The eight chemicals selected in the previous example for their effects on aromatic plants were subsequently field tested using 2 mM solutions of each chemical in sterilized distilled water. The field tests were performed on Pelargonium graveolens cv. Bipuli and Mentha arvensis cv. […] The plants were sprayed with the 2 mM solutions of the chemicals at the onset of maturity, 15 days before harvest. Plants sprayed with sterilized distilled water served as a control group.
# Mentha arvensis cv. Kosi [3] = assay: as above; conditions: for Content of Essential Oil (%): 2 mM spray at onset of maturity, 15 days before harvest, water control 0.66, LSD (p = 0.05) 0.06
# Method: as §1
# [4] = tested on: Pelargonium graveolens cv. Bipuli; assay: Large scale field testing at several concentrations, essential oil content; conditions: for Content of Essential Oil (%): distilled 15 days after spray, water 0.16, LSD (p = 0.05) 0.01
# Method: (§2) In the present example, field experiments were conducted, wherein 6 larger plots of Pelargonium graveolens cv. Bipuli (about 25 m^2) were sprayed with solutions of DL-2 amino butyric acid at several different concentrations. An equal number of plots sprayed with sterilized distilled water served as a control group. At least 20 samples of herbage from the sprayed plots and at least 20 samples of herbage from the control plots were distilled in Clevenger type glass apparatus 15 days after spray.
# [5] = tested on: Chamomilla recutita, Artemisia pallens, Pelargonium graveolens, and Mentha arvensis; assay: Screening of resistance-inducing chemicals on potted aromatic plants under glasshouse conditions; conditions: plants in pots, four aromatic plants
# Text: In this example, fifteen chemicals known to induce resistance in plants were screened by applying the chemicals to four varieties of aromatic plants in pots. The four aromatic plants used in this screening included: Chamomilla recutita, Artemisia pallens, Pelargonium graveolens, and Mentha arvensis. […] These eight chemicals include isonicotinamide, DL-2 amino butyric acid, 4-chlorosalicylic acid, 2-amino isobutyric acid, o-acetyl salicylic acid, amino salicylic acid, salicylic acid, and 5-nitrosalicylic acid.
# [6] = tested on: Pelargonium graveolens cv. Bipuli; assay: Further large plot field testing at about 206 mg/L, essential oil content
# Method: as §2
# (§3) Further field testing involved samples of herbage of both Pelargonium graveolens cv. Bipuli and Mentha arvensis cv. Kosi being treated with a solution of DL-2 amino butyric acid at a concentration of about 206 mg/L in water. Similarly to the above tests, large plots were sprayed with the DL-2 amino butyric acid solution, and samples of herbage from both the sprayed plots and the control plots were examined for their essential oil content.
# Mentha arvensis cv. Kosi [7] = assay: as above
# Method: as §2, §3
# [8] = age of crop at spray 10 days, water 0.67
# [9] = age of crop at spray 50 days, water 0.67
# [10] = age of crop at spray 80 days, water 0.68
# [11] = age of crop at spray 100 days, water 0.66
# [12] = 2 mM spray, versus water control
# [13] = about 206 mg/L, compared to herbage samples treated only with water
SMILES,Content of Essential Oil (%) (Mentha arvensis cv. Kosi [1]; [8]),Content of Essential Oil (%) (Mentha arvensis cv. Kosi [1]; [9]),Content of Essential Oil (%) (Mentha arvensis cv. Kosi [1]; [10]),Content of Essential Oil (%) (Mentha arvensis cv. Kosi [1]; [11]),Content of Essential Oil (%) [2] [%],"increase in essential oil content [2, 12]",Content of Essential Oil (%) (Mentha arvensis cv. Kosi [3]),increase in essential oil content (Mentha arvensis cv. Kosi [3]; [12]),Content of Essential Oil (%) ([4]; 0.1 mM solution),Content of Essential Oil (%) ([4]; 1.0 mM solution),"increase in essential oil content ([4]; 2 mM and 4 mM, versus water)",Content of Essential Oil (%) ([4]; 2.0 mM solution),Content of Essential Oil (%) ([4]; 4.0 mM solution),improving growth and herbage and/or essential oil content [5],"Content of Essential Oil (Mean % ± S.E.) ([6]; about 206 mg/L in water, n ≧ 20 herbage samples, water 0.14 ± 0.01) [%]","increase in essential oil content [6, 13]","Content of Essential Oil (Mean % ± S.E.) (Mentha arvensis cv. Kosi [7]; about 206 mg/L in water, n ≧ 20 herbage samples, water 0.74 ± 0.02) [%]",increase in essential oil content (Mentha arvensis cv. Kosi [7]; [13]),change in essential oil content (in words) ([2]; 2 mM spray)
CCC(N)C(=O)O (racemic) [DL-2 amino butyric acid],0.80,0.82,0.81,0.84,0.19,about 46%,0.84,about 27%,0.16,0.17,about 25%,0.20,0.20,particularly effective,0.19 ± 0.01,about 36%,0.89 ± 0.02,about 20%,
NC(=O)c1ccncc1 [isonicotinamide],0.71,0.70,0.70,0.70,0.14,,0.70,,,,,,,particularly effective,,,,,slight increase
CC(C)(N)C(=O)O [2-amino isobutyric acid],,,,,0.12,,0.72,,,,,,,particularly effective,,,,,
O=C(O)c1ccccc1O [salicylic acid],0.70,0.68,0.70,0.70,0.11,,0.70,,,,,,,particularly effective,,,,,slight reduction
O=C(O)c1ccc(Cl)cc1O [4-chloro salicylic acid],,,,,0.13,,0.68,,,,,,,particularly effective,,,,,
O=C(O)c1cc([N+](=O)[O-])ccc1O [5-nitrosalicylic acid],,,,,0.13,,0.73,,,,,,,particularly effective,,,,,
